Results from patent publication US20250282799A1, “SUBSTITUTED PYRIDO[4,3-d]PYRIMIDINES AS KRAS MODULATORS” (Alterome Therapeutics, Inc., priority 2023, published 2025).
pIC50: −log10 of the molar value.

tested on: KRAS G12V dependent lung adenocarcinoma cell line, NCI-H441; assay: Cellular pERK (Thr202/Tyr204) FRET/HTRF assay; assay type: cell-based; conditions: Homo sapiens, NCI-H441, cellular pERK (Thr202/Tyr204) HTRF, NCI-H441 cells
In short: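 Phospho-ERK1/2 (Thr202/Tyr204) quantified by two-antibody HTRF in lysed NCI-H441 cells. Cells seeded overnight, treated with test compounds for 1 hr at 37 °C against DMSO control, then lysed and detected at room temperature; IC50 obtained by curve fitting.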

| pIC50 | SMILES |
| --- | --- |
| 6.30 to 7.30 | C#Cc1c(F)ccc2cccc(-c3ncc4c(N5CCOC[C@H]6[C@H](F)[C@H]65)nc(OC[C@]56C[C@@H](F)CN5C[C@@H](CNC(C)=O)C6)nc4c3F)c12 [Example 245, N-(((2R,6R,7aS)-7a-(((7-(8-ethynyl-7-fluoronaphthalen-1-yl)-8-fluoro-4-((1S,7S,8S)-8-fluoro-5-oxa-2-azabicyclo[5.1.0]octan-2-yl)pyrido[4,3-d]pyrimidin-2-yl)oxy)methyl)-6-fluorohexahydro-1H-pyrrolizin-2-yl)methyl)acetamide] |
| > 7.30 | [2H]C([2H])(Oc1nc(N2CCOC[C@H]3[C@H](F)[C@H]32)c2cc(F)c(-c3cc(N)c(F)c(C)c3C(F)(F)F)c(F)c2n1)[C@@]12CCCN1C[C@H](F)C2 [Example 177, 5-(6,8-difluoro-4-((1S,7S,8S)-8-fluoro-5-oxa-2-azabicyclo[5.1.0]octan-2-yl)-2-(((2R,7aS)-2-fluorotetrahydro-1H-pyrrolizin-7a(5H)-yl)methoxy-d2)quinazolin-7-yl)-2-fluoro-3-methyl-4-(trifluoromethyl)aniline] |
| 5.00 to 6.30 | C#Cc1c(F)c(F)cc2cccc(-c3ncc4c(N5CCOC[C@@H]6[C@@H](F)[C@@H]65)nc(OC[C@@]56CCCN5CC(=C(F)F)C6)nc4c3F)c12 [Example 106, (1R,7R,8R)-2-(2-(((S)-2-(difluoromethylene)tetrahydro-1H-pyrrolizin-7a(5H)-yl)methoxy)-7-(8-ethynyl-6,7-difluoronaphthalen-1-yl)-8-fluoropyrido[4,3-d]pyrimidin-4-yl)-8-fluoro-5-oxa-2-azabicyclo[5.1.0]octane] |
| 6.30 to 7.30 | [2H]C([2H])(Oc1nc(N2CCOC[C@H]3[C@H](F)[C@H]32)c2cnc(-c3c(F)c(N)cc(C)c3C(F)(F)F)c(F)c2n1)[C@@]12CCCN1C[C@H](F)C2 [Example 271, 2-fluoro-3-(8-fluoro-4-((1S,7S,8S)-8-fluoro-5-oxa-2-azabicyclo[5.1.0]octan-2-yl)-2-(((2R,7aS)-2-fluorotetrahydro-1H-pyrrolizin-7a(5H)-yl)methoxy-d2)pyrido[4,3-d]pyrimidin-7-yl)-5-methyl-4-(trifluoromethyl)aniline] |
| > 7.30 | C#Cc1c(F)ccc2cc(N)cc(-c3ncc4c(N5CCOC[C@H]6[C@H](F)[C@H]65)nc(OC[C@@]56CCCN5CC(=C)C6)nc4c3F)c12 [Example 158, 5-Ethynyl-6-fluoro-4-(8-fluoro-4-((1S,7S,8S)-8-fluoro-5-oxa-2-azabicyclo[5.1.0]octan-2-yl)-2-(((S)-2-methylenetetrahydro-1H-pyrrolizin-7a(5H)-yl)methoxy)pyrido[4,3-d]pyrimidin-7-yl)naphthalen-2-amine] |

same assay, conditions: Homo sapiens, NCI-H441, pERK HTRF, NCI-H441 cells (KRAS G12V)

| pIC50 | SMILES |
| --- | --- |
| 6.30 to 7.30 | [2H]C([2H])(Oc1nc(N2CCCO[C@@H]3C[C@@H]32)c2c(OC)nc(-c3cc(O)cc4ccc(F)c(C#C)c34)c(F)c2n1)[C@@]12CCCN1C[C@H](F)C2 [Example 35, 4-(4-((1R,7S)-2-Oxa-6-azabicyclo[5.1.0]octan-6-yl)-8-fluoro-2-(((2R,7aS)-2-fluorotetrahydro-1H-pyrrolizin-7a(5H)-yl)methoxy-d2)-5-methoxypyrido[4,3-d]pyrimidin-7-yl)-5-ethynyl-6-fluoronaphthalen-2-ol] |
| > 7.30 | [2H]C([2H])(Oc1nc(N2CCCC[C@H]3[C@H](F)[C@H]32)c2cnc(-c3cccc4ccc(F)c(C#C)c34)c(F)c2n1)[C@@]12CCCN1C[C@H](F)C2 [Example 78, 7-(8-Ethynyl-7-fluoronaphthalen-1-yl)-8-fluoro-4-((1S,7R,8S)-8-fluoro-2-azabicyclo[5.1.0]octan-2-yl)-2-(((2R,7aS)-2-fluorotetrahydro-1H-pyrrolizin-7a(5H)-yl)methoxy-d2)pyrido[4,3-d]pyrimidine] |
